Values quoted from earlier work as cited in patent publication US5502059A, “Substituted 1-naphthyl-3-pyrazolecarboxamides which are active on neurotensin, their preparation and pharmaceutical compositions containing them” (Sanofi, priority 1993, dated 1996).

Tested on: neurotensin receptors

For COc1cccc(OC)c1-c1cc(C(=O)NC2(C(=O)O)C3CC4CC(C3)CC2C4)nn1-c1ccnc2cc(Cl)ccc12 (stereo not shown) [SR 48692, 2-1-(7-chloro-4-quinolyl)-5-(2,6-dimethoxyphenyl)-3pyrazolylcarbonylamino!-2-adamantanecarboxylic acid], the neurotensin-antagonist activity is listed as “potent and selective neurotensin-antagonist activity”.
